Drawing on ChEMBL document CHEMBL3991601, “The target landscape of clinical kinase drugs” (Science, 2017), this text covers Kd for 13 molecules.

pKd: −log10 of the molar value. Activity calls are given as the source filed them.

Experiment [1] has as its target Dual specificity testis-specific protein kinase 1 (Homo sapiens, UniProt Q15569).
In experiment [2] the target is High affinity nerve growth factor receptor (Homo sapiens, UniProt P04629).
Experiment [3] concerns the target Glycogen synthase kinase-3 beta (Homo sapiens, UniProt P49841).
The target of experiment [4] is Epidermal growth factor receptor (Homo sapiens, UniProt P00533).
Sequence of Epidermal growth factor receptor (P00533 whole entry): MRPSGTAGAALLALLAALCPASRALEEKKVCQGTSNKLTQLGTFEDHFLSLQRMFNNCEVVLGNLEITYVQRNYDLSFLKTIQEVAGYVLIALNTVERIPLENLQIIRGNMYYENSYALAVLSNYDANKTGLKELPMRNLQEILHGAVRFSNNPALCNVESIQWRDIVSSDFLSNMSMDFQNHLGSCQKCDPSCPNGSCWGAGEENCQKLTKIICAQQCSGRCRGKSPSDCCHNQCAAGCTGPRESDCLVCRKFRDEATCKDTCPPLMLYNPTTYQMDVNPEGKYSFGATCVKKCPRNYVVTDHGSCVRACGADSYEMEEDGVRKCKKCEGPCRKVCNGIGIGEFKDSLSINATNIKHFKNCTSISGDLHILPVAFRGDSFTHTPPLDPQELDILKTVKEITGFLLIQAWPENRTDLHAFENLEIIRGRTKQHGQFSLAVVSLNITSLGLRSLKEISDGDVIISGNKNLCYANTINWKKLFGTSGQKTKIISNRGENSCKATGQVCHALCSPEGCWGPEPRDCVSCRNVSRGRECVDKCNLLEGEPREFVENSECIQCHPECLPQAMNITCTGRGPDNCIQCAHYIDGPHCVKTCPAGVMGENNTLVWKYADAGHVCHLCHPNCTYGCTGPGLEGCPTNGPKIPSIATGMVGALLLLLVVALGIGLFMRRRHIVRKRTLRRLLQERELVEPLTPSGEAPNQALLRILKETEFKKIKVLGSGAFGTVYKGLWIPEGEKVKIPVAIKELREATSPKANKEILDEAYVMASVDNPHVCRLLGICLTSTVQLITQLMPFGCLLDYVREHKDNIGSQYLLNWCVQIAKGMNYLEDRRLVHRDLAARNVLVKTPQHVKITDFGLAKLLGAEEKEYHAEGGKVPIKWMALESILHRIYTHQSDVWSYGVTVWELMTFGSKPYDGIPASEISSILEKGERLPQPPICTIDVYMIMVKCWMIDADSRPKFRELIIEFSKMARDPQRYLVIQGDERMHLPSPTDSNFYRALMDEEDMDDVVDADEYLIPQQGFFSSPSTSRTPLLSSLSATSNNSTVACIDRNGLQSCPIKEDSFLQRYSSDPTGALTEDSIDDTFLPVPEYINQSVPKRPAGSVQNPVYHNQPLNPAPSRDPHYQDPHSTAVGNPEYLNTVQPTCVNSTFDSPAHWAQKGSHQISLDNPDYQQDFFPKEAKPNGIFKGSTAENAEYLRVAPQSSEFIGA
The target of experiment [5] is Membrane-associated progesterone receptor component 1 (Homo sapiens, UniProt O00264).
Sequence of Membrane-associated progesterone receptor component 1 (O00264 whole entry): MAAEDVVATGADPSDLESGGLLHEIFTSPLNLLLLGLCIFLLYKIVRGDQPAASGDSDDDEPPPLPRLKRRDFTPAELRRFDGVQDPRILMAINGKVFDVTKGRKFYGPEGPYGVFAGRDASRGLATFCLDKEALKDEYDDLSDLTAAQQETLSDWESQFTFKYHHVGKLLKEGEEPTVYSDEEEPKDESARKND
Experiment [6] has as its target DNA topoisomerase 2-alpha (Homo sapiens, UniProt P11388).
The target of the next experiment is Focal adhesion kinase 1 (Homo sapiens, UniProt Q05397).
Experiment [7] deals with PAS domain-containing serine/threonine-protein kinase (Homo sapiens, UniProt Q96RG2).
Sequence of PAS domain-containing serine/threonine-protein kinase (Q96RG2 whole entry, the tested form may be a part): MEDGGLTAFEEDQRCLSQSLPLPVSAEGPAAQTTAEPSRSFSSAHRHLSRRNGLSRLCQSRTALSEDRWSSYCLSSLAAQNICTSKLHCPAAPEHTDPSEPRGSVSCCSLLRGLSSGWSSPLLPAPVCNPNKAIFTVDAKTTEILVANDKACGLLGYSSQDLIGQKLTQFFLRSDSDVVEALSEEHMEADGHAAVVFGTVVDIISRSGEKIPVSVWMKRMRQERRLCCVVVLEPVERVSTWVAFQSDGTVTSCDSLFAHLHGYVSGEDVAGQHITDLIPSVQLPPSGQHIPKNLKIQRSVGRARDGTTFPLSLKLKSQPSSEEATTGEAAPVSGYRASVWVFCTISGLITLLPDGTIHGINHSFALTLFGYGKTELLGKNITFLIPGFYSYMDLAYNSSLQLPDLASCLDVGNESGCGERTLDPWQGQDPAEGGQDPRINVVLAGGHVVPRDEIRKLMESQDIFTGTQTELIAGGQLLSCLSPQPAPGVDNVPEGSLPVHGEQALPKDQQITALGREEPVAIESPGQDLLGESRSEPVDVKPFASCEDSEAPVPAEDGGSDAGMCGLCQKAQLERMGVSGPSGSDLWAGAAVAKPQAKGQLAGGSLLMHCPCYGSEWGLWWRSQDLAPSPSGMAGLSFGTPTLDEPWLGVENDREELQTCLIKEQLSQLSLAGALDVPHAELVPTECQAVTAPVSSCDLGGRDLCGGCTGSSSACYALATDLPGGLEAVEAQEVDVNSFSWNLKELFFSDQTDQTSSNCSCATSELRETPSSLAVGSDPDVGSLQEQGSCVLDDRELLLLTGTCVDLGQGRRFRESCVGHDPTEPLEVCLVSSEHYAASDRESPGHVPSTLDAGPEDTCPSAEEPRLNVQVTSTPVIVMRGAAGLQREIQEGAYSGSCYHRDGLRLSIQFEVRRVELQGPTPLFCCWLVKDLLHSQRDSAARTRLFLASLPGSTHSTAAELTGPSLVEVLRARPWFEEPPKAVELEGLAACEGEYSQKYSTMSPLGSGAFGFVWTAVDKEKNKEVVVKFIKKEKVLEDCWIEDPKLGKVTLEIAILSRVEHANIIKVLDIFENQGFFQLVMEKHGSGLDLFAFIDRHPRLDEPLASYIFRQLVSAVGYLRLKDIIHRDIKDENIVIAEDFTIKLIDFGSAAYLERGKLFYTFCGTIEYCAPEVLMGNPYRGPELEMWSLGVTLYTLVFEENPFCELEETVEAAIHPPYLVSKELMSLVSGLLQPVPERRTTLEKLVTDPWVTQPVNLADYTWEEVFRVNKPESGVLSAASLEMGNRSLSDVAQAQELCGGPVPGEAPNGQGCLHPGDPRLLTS
The target in experiment [8] is T1, Receptor-type tyrosine-protein kinase FLT3 (Homo sapiens, UniProt P36888).
T1 sequence (P36888 whole entry): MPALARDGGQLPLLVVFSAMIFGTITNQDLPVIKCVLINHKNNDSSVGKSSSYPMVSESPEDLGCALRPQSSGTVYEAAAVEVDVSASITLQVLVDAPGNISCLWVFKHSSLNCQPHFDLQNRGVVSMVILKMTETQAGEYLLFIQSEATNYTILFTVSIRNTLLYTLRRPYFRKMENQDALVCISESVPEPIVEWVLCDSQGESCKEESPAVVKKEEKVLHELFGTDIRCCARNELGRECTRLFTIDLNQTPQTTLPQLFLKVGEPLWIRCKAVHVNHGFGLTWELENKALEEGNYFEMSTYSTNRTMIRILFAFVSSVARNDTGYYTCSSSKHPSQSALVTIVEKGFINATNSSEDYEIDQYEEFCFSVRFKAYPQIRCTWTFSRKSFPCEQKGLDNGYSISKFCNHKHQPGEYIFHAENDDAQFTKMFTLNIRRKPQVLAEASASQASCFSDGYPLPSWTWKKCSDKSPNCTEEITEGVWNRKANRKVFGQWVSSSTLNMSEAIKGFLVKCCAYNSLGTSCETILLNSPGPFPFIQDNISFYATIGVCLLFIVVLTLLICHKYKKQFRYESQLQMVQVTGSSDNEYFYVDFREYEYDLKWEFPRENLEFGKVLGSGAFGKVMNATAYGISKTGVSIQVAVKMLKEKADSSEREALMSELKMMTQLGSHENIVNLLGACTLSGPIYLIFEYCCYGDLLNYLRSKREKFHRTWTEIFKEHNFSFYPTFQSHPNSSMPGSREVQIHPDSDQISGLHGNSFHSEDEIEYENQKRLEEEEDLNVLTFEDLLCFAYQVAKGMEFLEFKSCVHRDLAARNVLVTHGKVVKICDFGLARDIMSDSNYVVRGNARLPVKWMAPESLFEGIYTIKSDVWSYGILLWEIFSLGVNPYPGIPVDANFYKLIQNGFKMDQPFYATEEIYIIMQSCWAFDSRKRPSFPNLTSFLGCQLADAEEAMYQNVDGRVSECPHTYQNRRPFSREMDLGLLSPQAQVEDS

In experiment [9] the target is Proto-oncogene tyrosine-protein kinase receptor Ret (Homo sapiens, UniProt P07949).
The target in experiment [10] is Mitogen-activated protein kinase 14 (Homo sapiens, UniProt Q16539).
In experiment [11] the target is Serine/threonine-protein kinase N3 (Homo sapiens, UniProt Q6P5Z2).
Sequence of Serine/threonine-protein kinase N3 (Q6P5Z2 whole entry): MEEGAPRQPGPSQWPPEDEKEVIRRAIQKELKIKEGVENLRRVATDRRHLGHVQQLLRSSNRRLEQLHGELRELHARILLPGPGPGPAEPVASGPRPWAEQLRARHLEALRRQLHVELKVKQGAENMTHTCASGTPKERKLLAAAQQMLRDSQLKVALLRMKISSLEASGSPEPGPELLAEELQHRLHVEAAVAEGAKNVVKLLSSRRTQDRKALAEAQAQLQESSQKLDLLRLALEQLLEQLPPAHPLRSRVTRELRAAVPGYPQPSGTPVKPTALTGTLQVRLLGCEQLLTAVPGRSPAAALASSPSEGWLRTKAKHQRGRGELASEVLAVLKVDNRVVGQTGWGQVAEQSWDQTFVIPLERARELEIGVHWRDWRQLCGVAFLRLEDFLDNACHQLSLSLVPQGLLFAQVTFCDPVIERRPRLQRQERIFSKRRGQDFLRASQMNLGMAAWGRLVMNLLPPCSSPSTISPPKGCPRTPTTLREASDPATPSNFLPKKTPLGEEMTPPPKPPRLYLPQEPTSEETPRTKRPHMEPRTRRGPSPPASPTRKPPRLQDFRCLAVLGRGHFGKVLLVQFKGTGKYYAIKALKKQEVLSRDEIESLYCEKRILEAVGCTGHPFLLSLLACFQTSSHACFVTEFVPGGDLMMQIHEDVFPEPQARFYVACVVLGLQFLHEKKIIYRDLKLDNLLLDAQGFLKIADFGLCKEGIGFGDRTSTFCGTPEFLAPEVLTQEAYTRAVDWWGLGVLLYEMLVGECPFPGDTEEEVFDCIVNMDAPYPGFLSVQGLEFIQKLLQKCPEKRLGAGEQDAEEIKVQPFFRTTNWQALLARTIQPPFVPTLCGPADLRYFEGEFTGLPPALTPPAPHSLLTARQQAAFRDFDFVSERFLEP
Experiment [12] has as its target Phosphatidylethanolamine-binding protein 1 (Homo sapiens, UniProt P30086).
Experiment [13] addresses Cell division cycle 7-related protein kinase (Homo sapiens, UniProt O00311).
For experiment [14], the target named is T2, Thyroid hormone receptor-associated protein 3 (Homo sapiens, UniProt Q9Y2W1).
T2 sequence (Q9Y2W1 whole entry): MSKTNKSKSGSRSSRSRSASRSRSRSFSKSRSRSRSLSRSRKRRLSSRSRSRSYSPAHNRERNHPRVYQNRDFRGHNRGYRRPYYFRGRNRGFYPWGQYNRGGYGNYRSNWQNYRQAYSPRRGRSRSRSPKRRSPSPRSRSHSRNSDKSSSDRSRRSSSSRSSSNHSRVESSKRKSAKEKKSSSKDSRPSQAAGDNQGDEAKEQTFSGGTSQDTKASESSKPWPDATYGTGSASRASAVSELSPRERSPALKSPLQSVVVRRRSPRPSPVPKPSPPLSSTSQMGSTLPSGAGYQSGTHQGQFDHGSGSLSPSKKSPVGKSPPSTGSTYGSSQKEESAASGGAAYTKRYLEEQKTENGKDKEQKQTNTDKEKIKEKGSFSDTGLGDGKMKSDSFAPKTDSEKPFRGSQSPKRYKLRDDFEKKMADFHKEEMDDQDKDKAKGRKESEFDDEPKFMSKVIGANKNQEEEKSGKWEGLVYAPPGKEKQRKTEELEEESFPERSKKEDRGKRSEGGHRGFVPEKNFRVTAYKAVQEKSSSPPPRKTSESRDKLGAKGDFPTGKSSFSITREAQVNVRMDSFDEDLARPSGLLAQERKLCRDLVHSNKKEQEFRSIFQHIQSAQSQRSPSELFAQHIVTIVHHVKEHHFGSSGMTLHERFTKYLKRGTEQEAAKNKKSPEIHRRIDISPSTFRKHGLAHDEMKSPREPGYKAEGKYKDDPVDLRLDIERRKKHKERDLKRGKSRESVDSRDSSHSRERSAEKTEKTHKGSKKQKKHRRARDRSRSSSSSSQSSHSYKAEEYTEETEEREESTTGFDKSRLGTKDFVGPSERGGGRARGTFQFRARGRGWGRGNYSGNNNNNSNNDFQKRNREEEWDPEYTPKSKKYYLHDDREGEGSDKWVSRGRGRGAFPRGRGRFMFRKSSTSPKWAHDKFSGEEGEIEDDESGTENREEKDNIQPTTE

Experiment [15] has as its target Serine/threonine-protein kinase pim-2 (Homo sapiens, UniProt Q9P1W9).

As usually defined, the Kd is the free concentration of one partner at which half of the binding sites on the other are occupied at equilibrium, for simple one-to-one binding. The term pKd denotes the negative decadic logarithm of the Kd, by convention in mol/L. A high value points to a small Kd.
Note: in the data inactive means no Kd found up to 30 µM.

Sequence of High affinity nerve growth factor receptor (P04629 whole entry): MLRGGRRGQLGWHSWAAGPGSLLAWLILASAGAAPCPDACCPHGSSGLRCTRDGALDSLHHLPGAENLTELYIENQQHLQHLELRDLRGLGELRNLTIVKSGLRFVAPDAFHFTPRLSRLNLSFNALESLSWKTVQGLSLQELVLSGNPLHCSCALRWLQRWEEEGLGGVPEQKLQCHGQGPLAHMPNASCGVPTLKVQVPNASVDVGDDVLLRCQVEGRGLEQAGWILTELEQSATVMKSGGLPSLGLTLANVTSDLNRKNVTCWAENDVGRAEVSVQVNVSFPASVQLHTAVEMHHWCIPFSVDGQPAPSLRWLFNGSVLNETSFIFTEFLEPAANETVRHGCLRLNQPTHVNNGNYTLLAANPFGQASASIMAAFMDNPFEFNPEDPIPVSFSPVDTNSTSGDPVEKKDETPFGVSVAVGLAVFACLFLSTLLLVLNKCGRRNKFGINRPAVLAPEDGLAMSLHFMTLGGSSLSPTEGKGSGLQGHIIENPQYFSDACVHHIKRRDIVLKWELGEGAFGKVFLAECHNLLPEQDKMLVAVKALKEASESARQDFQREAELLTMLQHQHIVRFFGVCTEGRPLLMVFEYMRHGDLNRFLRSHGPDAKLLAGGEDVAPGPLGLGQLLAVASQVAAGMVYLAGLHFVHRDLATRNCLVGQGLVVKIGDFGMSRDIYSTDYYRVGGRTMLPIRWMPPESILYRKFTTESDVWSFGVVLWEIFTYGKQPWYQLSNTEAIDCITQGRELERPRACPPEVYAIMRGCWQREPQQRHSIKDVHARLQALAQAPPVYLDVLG
Sequence of Dual specificity testis-specific protein kinase 1 (Q15569 whole entry): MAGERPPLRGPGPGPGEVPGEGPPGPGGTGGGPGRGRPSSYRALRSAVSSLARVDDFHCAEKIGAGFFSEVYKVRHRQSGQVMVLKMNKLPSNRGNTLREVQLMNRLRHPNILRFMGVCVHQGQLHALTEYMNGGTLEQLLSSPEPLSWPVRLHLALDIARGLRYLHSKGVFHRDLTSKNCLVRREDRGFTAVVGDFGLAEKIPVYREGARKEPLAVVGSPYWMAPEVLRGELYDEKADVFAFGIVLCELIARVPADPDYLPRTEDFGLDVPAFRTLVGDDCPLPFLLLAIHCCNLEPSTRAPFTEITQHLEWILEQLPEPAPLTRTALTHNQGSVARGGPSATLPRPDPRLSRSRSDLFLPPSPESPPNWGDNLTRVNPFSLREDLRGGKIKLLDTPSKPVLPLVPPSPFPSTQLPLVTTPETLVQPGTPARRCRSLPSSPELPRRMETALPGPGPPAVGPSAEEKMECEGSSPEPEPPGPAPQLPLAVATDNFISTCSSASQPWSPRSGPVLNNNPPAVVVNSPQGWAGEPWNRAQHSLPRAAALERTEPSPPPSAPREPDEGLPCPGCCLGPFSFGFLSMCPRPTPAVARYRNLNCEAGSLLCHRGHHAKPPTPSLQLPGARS

Take `CC[C@@](C)(Nc1ccnc(-c2c[nH]c3ncccc23)n1)C(=O)NCC(F)(F)F` [DECERNOTINIB]: the Kd (in [1]; in experiment [2]; in experiment [3]; in experiment [4]; in experiment [5]; at Focal adhesion kinase 1) was > 30 µM (inactive) throughout. In addition, the Kd in [7], in [8], in [9] and in experiment [10] was > 30 µM (inactive) in each case. The pKd in [6] is 7.19.
For `COc1cc2c(Oc3ccc4[nH]c(C)cc4c3F)ncnc2cc1OCCCN1CCCC1` [CEDIRANIB], the Kd in experiment [11], in [12], in experiment [6], in experiment [13] and in [7] was > 30 µM (inactive) in each case.
For `Cn1cnc2c(F)c(Nc3ccc(Br)cc3Cl)c(C(=O)NOCCO)cc21` [SELUMETINIB], the Kd in experiment [11], in [12], in experiment [14], in [5], in experiment [6] and in [13] was > 30 µM (inactive) throughout. Moreover, the Kd in experiment [7] is > 30 µM (inactive).
Consider `COc1cc2c(N3CCN(C(=O)Nc4ccc(OC(C)C)cc4)CC3)ncnc2cc1OCCCN1CCCCC1` [TANDUTINIB], for which the Kd in experiment [11], in [14], in experiment [13] and in experiment [7] was > 30 µM (inactive) each time.
Take `C=CCN(/C=C1/C(=O)O[C@H](COC)[C@@]2(C)C1=C(O)C(=O)C1=C2[C@H](OC(C)=O)C[C@]2(C)C(=O)CC[C@@H]12)CC=C` [SONOLISIB]: the Kd (in [1]; in experiment [3]; in experiment [4]; in experiment [14]; on Focal adhesion kinase 1; in experiment [8]) was > 30 µM (inactive) throughout. The Kd in [9] and in experiment [10] was > 30 µM (inactive) throughout.
As for `COc1cccc(Nc2ncnn3ccc(CN4CC[C@@H](N)[C@H](O)C4)c23)c1` [BMS-690514], the Kd was > 30 µM (inactive) in experiment [12]; > 30 µM (inactive) in experiment [1]; > 30 µM (inactive) in [3]; 0.225 µM (active) in experiment [4]; > 30 µM (inactive) at Focal adhesion kinase 1; 0.034 µM (active) in experiment [9]. The Kd in experiment [10] is > 30 µM (inactive).
Take `CC1(C)CNc2cc(NC(=O)c3cccnc3NCc3ccncc3)ccc21` [MOTESANIB]: the Kd in experiment [12], in experiment [5] and in [13] was > 30 µM (inactive) throughout.
As for `CC(C)(O)CC(=O)NCCn1ccc2ncnc(Nc3ccc(Oc4cccc(C(F)(F)F)c4)c(Cl)c3)c21` [TAK-285], the Kd in [11], in experiment [12], in [1], in [2], in experiment [3] and in experiment [5] was > 30 µM (inactive) throughout. Further, the Kd (at Focal adhesion kinase 1; in experiment [13]; in [8]; in experiment [9]; in experiment [10]) was > 30 µM (inactive) in each case.
Turning to `CCc1nc(C(N)=O)c(Nc2ccc(N3CCC(N4CCN(C)CC4)CC3)c(OC)c2)nc1NC1CCOCC1` [GILTERITINIB], the Kd in [1] was > 30 µM (inactive); in experiment [2], > 30 µM (inactive); in [3], > 30 µM (inactive); in experiment [4] it was 3.5 µM (active); in experiment [14], > 30 µM (inactive); in experiment [5] it was > 30 µM (inactive). The Kd was > 30 µM (inactive) in experiment [6], > 30 µM (inactive) at Focal adhesion kinase 1, 0.05 µM (active) in experiment [9] and > 30 µM (inactive) in [10].
As to `NC[C@@](O)(c1ccc(Cl)cc1)c1ccc(-c2cn[nH]c2)cc1` [AT-13148], the Kd in experiment [12], in experiment [3], in [4], in [14], in [5] and in experiment [6] was > 30 µM (inactive) in each case. The Kd (at Focal adhesion kinase 1; in experiment [8]; in [9]; in experiment [10]) was > 30 µM (inactive) in each case.
`CCOc1ccn(-c2ccc(F)cc2)c(=O)c1C(=O)Nc1ccc(Oc2ccnc(N)c2Cl)c(F)c1` [BMS-777607]: the Kd in [12], in [13] and in experiment [10] was > 30 µM (inactive) each time.
Turning to `COc1cc(F)c(F)c(Nc2ccc(I)cc2F)c1NS(=O)(=O)C1(C[C@H](O)CO)CC1` [REFAMETINIB], the Kd in experiment [12], in [1], in experiment [2], in experiment [3], in experiment [4] and in experiment [14] was > 30 µM (inactive) each time. Further, the Kd (at Focal adhesion kinase 1; in [7]; in [8]; in [9]; in experiment [10]) was > 30 µM (inactive) each time.
Take `C=CC(=O)Nc1cccc(Nc2nc(Nc3ccc(N4CCN(C(C)=O)CC4)cc3OC)ncc2C(F)(F)F)c1` [ROCILETINIB]: the Kd in [12], in experiment [15], in experiment [1], in experiment [2], in experiment [3] and in [6] was > 30 µM (inactive) each time. Besides, the Kd at Focal adhesion kinase 1 was 0.433 µM (active); in experiment [8], > 30 µM (inactive); in [9] it was > 30 µM (inactive); in experiment [10], > 30 µM (inactive).
